# In US6214860A, “Synergistic antitumor composition containing a naphthalensulphonic acid derivative” (Pharmacia & Upjohn S.p.A., priority 1997, dated 2001):
# Several values for one entry are separate records, joined by “and”; a condition that tells them apart may be missing. Equal values may be shown once. Where a name gives a salt, the structure may show the parent alone. Read-outs that look alike come from different tables or passages of the source.
# Tests used:
# [1] = system: M5076 murine reticulosarcoma cells; assay: In vivo antitumor activity in mice implanted with M5076 tumor cells; parameters: species or system Mice C57BL/6; conditions: days 1, 4, 7 and 11; for A.U.C. % inhib. (inhibition of tumor growth): one week after last treatment; for TGD (tumor growth delay): time to reach one gram
# Procedure: (§1) The combinations were assayed in vitro on M5076 murine reticulosarcoma cells and in vivo on the same tumor cells implanted intramuscularly.
# The antitumor activity was calculated in terms of:
# % AUC: inhibition of tumor growth
# T/C %: percentage of median increase in survival time
# The A.U.C. (area under the curve) of the tumor growth was calculated by using the trapezoidal method, and is referred to the measurement of tumor growth performed one week after the last treatment. The percentage of inhibition (% A.U.C.) was calculated using the following formula: [formula]
# The percentage of increase in survival time (T/C% ) was calculated using the following formula: [formula]
# Mice were monitored according to guidelines and sacrificed when tumor weight exceeded 10% body weight. Tumor growth delay (TGD) is the time, in days, to reach one gram of tumor weight in treated animals as compared to control animals.
# Evaluation of statistical significance was performed as follows: Student's Test for cytotoxic activity, Two-Way Anova for increase in survival time (T/C %) with combined treatment in comparison to the increase exerted separately by the two drugs, Tukey Test for tumor weight reduction (AUC % inhibition) with combined treatment in comparison to the reduction exerted separately by the two drugs.
# The criterion for statistical significance was the 0.01 level ( )
# [2] = days 1, 4, 7 and 11
# Procedure: Mice C57BL/6 were implanted with M5076 murine reticulosarcoma cells. PNU 145156E was administered ip 2 h prior to cytotoxic drugs administered iv starting treatment 24 h after tumor implant. Treatments were performed at days 1, 4, 7 and 11.
# The toxicological evaluation was performed in terms of body weight loss and spleen and liver reduction.
# [3] = system: M5076 murine reticulosarcoma cells; assay: In vitro antiproliferative activity (% cell growth vs untreated control); format: cell-based; conditions: for antiproliferative activity in the presence of PNU 145156E: in words, PNU 145156E 50000 ng/ml vs 0 ng/ml
# Procedure: as §1
# [4] = 9AC 2.5 mg/kg iv, combination: + PNU 145156E 100 mg/kg ip 2 h prior
# [5] = 9AC 3 mg/kg iv, combination: + PNU 145156E 100 mg/kg ip 2 h prior
# [6] = 9AC 3.5 mg/kg iv, combination: + PNU 145156E 100 mg/kg ip 2 h prior
# [7] = cytotoxic 40 ng/ml + PNU 145156E 50000 ng/ml, 72 h, 37° C.
# [8] = CIS 6 mg/kg iv, combination: + PNU 145156E 100 mg/kg ip 2 h prior
# [9] = CPT-11 60 mg/kg iv, combination: + PNU 145156E 100 mg/kg ip 2 h prior
# [10] = TX 33 mg/kg iv, combination: + PNU 145156E 100 mg/kg ip 2 h prior
# [11] = TX 40 mg/kg iv, combination: + PNU 145156E 100 mg/kg ip 2 h prior
# [12] = PNU 145156E alone 100 mg/kg ip, single-agent arm of each of Tables 2-6
smiles,measurement,setting,value
"CC[C@@]1(O)C(=O)OCc2c1cc1n(c2=O)Cc2cc3c(N)cccc3nc2-1 [9-AC, 9-aminocamptothecin]",T/C % (median increase in survival time),[1]; [4],121%
same,Tumor weight,[1]; [4],2.4 ± 0.9 gr
same,A.U.C. % inhib. (inhibition of tumor growth),[1]; [4],45%
same,TGD (tumor growth delay),[1]; [4],5 days
same,T/C % (median increase in survival time),[1]; [5],125%
same,Tumor weight,[1]; [5],2.13 ± 0.8 gr
same,A.U.C. % inhib. (inhibition of tumor growth),[1]; [5],48%
same,TGD (tumor growth delay),[1]; [5],6 days
same,T/C % (median increase in survival time),[1]; [6],128%
same,Tumor weight,[1]; [6],1.58 ± 0.6 gr
same,A.U.C. % inhib. (inhibition of tumor growth),[1]; [6],68%
same,TGD (tumor growth delay),[1]; [6],8 days
same,Toxic/total mice,[2]; [4],0/10
same,Toxic/total mice,[2]; [5],0/10
same,Toxic/total mice,[2]; [6],1/10
same,activity at 0.0025 µg/mL,"[3]; Mus musculus, M5076, 72 h, cytotoxic 2.5 ng/ml, PNU 145156E 0 ng/ml, 72 h, 37° C., read-out: % cell growth ± S.E.",88 ± 10%
same,activity at 0.01 µg/mL,"[3]; Mus musculus, M5076, 72 h, cytotoxic 10 ng/ml, PNU 145156E 0 ng/ml, 72 h, 37° C., read-out: % cell growth ± S.E.",28 ± 2%
same,activity at 0.04 µg/mL,"[3]; Mus musculus, M5076, 72 h, cytotoxic 40 ng/ml, PNU 145156E 0 ng/ml, 72 h, 37° C., read-out: % cell growth ± S.E.",7 ± 2%
same,% cell growth ± S.E.,"[3]; cytotoxic 2.5 ng/ml + PNU 145156E 50000 ng/ml, 72 h, 37° C.",76 ± 6%
same,% cell growth ± S.E.,"[3]; cytotoxic 10 ng/ml + PNU 145156E 50000 ng/ml, 72 h, 37° C.",29 ± 9%
same,% cell growth ± S.E.,[3]; [7],8 ± 3%
same,antiproliferative activity in the presence of PNU 145156E,[3],unchanged in the presence of PNU 145156E
"N.N.[Cl][Pt][Cl] [CIS, cisplatin]",T/C % (median increase in survival time),[1]; [8],130%
same,Tumor weight,[1]; [8],1.1 ± 0.1 gr
same,A.U.C. % inhib. (inhibition of tumor growth),[1]; [8],75%
same,TGD (tumor growth delay),[1]; [8],11 days
same,% cell growth ± S.E.,"[3]; cytotoxic 8 ng/ml + PNU 145156E 50000 ng/ml, 72 h, 37° C.",83 ± 7%
same,% cell growth ± S.E.,"[3]; cytotoxic 8 ng/ml, PNU 145156E 0 ng/ml, 72 h, 37° C.",91 ± 3%
same,% cell growth ± S.E.,[3]; [7],46 ± 3%
same,% cell growth ± S.E.,"[3]; cytotoxic 40 ng/ml, PNU 145156E 0 ng/ml, 72 h, 37° C.",52 ± 7%
same,% cell growth ± S.E.,"[3]; cytotoxic 200 ng/ml + PNU 145156E 50000 ng/ml, 72 h, 37° C.",4 ± 1%
same,% cell growth ± S.E.,"[3]; cytotoxic 200 ng/ml, PNU 145156E 0 ng/ml, 72 h, 37° C.",9 ± 5%
same,antiproliferative activity in the presence of PNU 145156E,[3],unchanged in the presence of PNU 145156E
"CCc1c2c(nc3ccc(OC(=O)N4CCC(N5CCCCC5)CC4)cc13)-c1cc3c(c(=O)n1C2)COC(=O)[C@]3(O)CC [CPT-11, irinotecan]",T/C % (median increase in survival time),[1]; [9],215%
same,Tumor weight,[1]; [9],0.05 ± 0.2 gr
same,A.U.C. % inhib. (inhibition of tumor growth),[1]; [9],100%
same,TGD (tumor growth delay),[1]; [9],34 days
same,Toxic/total mice,[2]; [9],0/8
"CC(=O)O[C@H]1C(=O)[C@@]2(C)[C@H]([C@H](OC(=O)c3ccccc3)[C@]3(O)C[C@H](OC(=O)[C@H](O)[C@@H](NC(=O)c4ccccc4)c4ccccc4)C(C)=C1C3(C)C)[C@]1(OC(C)=O)CO[C@@H]1C[C@@H]2O [PACLITAXEL, paclitaxel]",T/C % (median increase in survival time),[1]; [10],108%
same,Tumor weight,[1]; [10],2.34 ± 0.9 gr
same,A.U.C. % inhib. (inhibition of tumor growth),[1]; [10],77%
same,TGD (tumor growth delay),[1]; [10],8 days
same,T/C % (median increase in survival time),[1]; [11],118%
same,Tumor weight,[1]; [11],1.3 ± 0.7 gr
same,A.U.C. % inhib. (inhibition of tumor growth),[1]; [11],93%
same,TGD (tumor growth delay),[1]; [11],9 days
same,Toxic/total mice,[2]; [10],0/10
same,Toxic/total mice,[2]; [11],0/10
same,activity at 0.00625 µg/mL,"[3]; Mus musculus, M5076, cytotoxic 6.25 ng/ml, PNU 145156E 0 ng/ml, 72 h, 37° C., read-out: % cell growth ± S.E.",89 ± 1%
same,activity at 0.025 µg/mL,"[3]; Mus musculus, M5076, cytotoxic 25 ng/ml, PNU 145156E 0 ng/ml, 72 h, 37° C., read-out: % cell growth ± S.E.",50 ± 7%
same,activity at 0.1 µg/mL,"[3]; Mus musculus, M5076, cytotoxic 100 ng/ml, PNU 145156E 0 ng/ml, 72 h, 37° C., read-out: % cell growth ± S.E.",1 ± 1%
same,% cell growth ± S.E.,"[3]; cytotoxic 6.25 ng/ml + PNU 145156E 50000 ng/ml, 72 h, 37° C.",87 ± 14%
same,% cell growth ± S.E.,"[3]; cytotoxic 25 ng/ml + PNU 145156E 50000 ng/ml, 72 h, 37° C.",43 ± 1%
same,% cell growth ± S.E.,"[3]; cytotoxic 100 ng/ml + PNU 145156E 50000 ng/ml, 72 h, 37° C.",2 ± 0%
same,antiproliferative activity in the presence of PNU 145156E,[3],unchanged in the presence of PNU 145156E
"Cn1cc(NC(=O)Nc2cc(C(=O)Nc3cc(C(=O)Nc4ccc5cc(S(=O)(=O)O)cc(S(=O)(=O)O)c5c4)n(C)c3)n(C)c2)cc1C(=O)Nc1cc(C(=O)Nc2ccc3cc(S(=O)(=O)O)cc(S(=O)(=O)O)c3c2)n(C)c1 [PNU 145156E, 7'-(carbonyl-bis(imino-N-methyl-4,2-pyrrolecarbonyl-imino(N-methyl-4,2-pyrrole)carbonylimino))bis(1,3-naphtalen-disulfonic acid)tetrasodium salt]",T/C % (median increase in survival time),[1]; [12],121% and 141% and 148%
same,Tumor weight,[1]; [12],1.45 ± 0.7 gr and 2.63 ± 0.8 gr and 1.4 ± 0.7 gr and 1.7 ± 0.65 gr
same,A.U.C. % inhib. (inhibition of tumor growth),[1]; [12],88% and 85% and 90% and 75%
same,TGD (tumor growth delay),[1]; [12],9 days and 10 days and 16 days
same,Toxic/total mice,[2]; [12],0/10 and 0/9 and 0/8
same,activity at 50 µg/mL,"[3]; Mus musculus, M5076, 72 h, PNU 145156E 50000 ng/ml alone (cytotoxic 0 ng/ml), 72 h, 37° C., read-out: % cell growth ± S.E.",85%
same,% cell growth ± S.E.,"[3]; PNU 145156E 50000 ng/ml alone (cytotoxic 0 ng/ml), 72 h, 37° C., 4320 min",88 ± 3% and 92 ± 5% and 92 ± 14% and 89 ± 19%
CCc1c2c(nc3ccc(O)cc13)-c1cc3c(c(=O)n1C2)COC(=O)[C@]3(O)CC [SN-38],activity at 0.0065 µg/mL,"[3]; Mus musculus, M5076, 72 h, cytotoxic 6.5 ng/ml, PNU 145156E 0 ng/ml, 72 h, 37° C., read-out: % cell growth ± S.E.",75 ± 5%
same,activity at 0.0125 µg/mL,"[3]; Mus musculus, M5076, 72 h, cytotoxic 12.5 ng/ml, PNU 145156E 0 ng/ml, 72 h, 37° C., read-out: % cell growth ± S.E.",19 ± 2%
same,activity at 0.035 µg/mL,"[3]; Mus musculus, M5076, 72 h, cytotoxic 35 ng/ml, PNU 145156E 0 ng/ml, 72 h, 37° C., read-out: % cell growth ± S.E.",5 ± 1%
same,% cell growth ± S.E.,"[3]; cytotoxic 6.5 ng/ml + PNU 145156E 50000 ng/ml, 72 h, 37° C.",74 ± 7%
same,% cell growth ± S.E.,"[3]; cytotoxic 12.5 ng/ml + PNU 145156E 50000 ng/ml, 72 h, 37° C.",25 ± 7%
same,antiproliferative activity in the presence of PNU 145156E,[3],unchanged in the presence of PNU 145156E
